# Reference: PMC7093416, “Selective USP7 inhibition elicits cancer cell killing through a p53-dependent mechanism” (Scientific Reports, 2020)
# Test system: panel of 484 cancer cell lines
# Experiment: PRISM cancer cell line profiling, 5 days
# Format: cell-based
# Design: AUC: unit not given beside the values
# Method: Cancer cell line profiling was performed using the Broad’s PRISM platform. Cell treatment and data analysis were performed as described in Yu et al[42]. Raw Luminex signal was converted to AUC values for each cell line as described. The resulting AUC profile for each compound was modeled against DepMap using the limma package in R[71]. Because hotspot mutation analysis was performed against DepMap, TP53 annotations in Fig. 6c,d are directly from DepMap.
structure (smiles),measurement,setting,value
CN1CCN(CCC(=O)Nc2ccc3c(=O)n(CC4(O)CCN(C(=O)[C@H](CCCNC(=O)c5ccc6c(Cl)c7c(nc6c5)CCCC7)Cc5ccccc5)CC4)cnc3c2)CC1 [XL177B],AUC,RT112_URINARY_TRACT,0.9816
same,AUC,RVH421_SKIN,0.8995
same,AUC,S117_SOFT_TISSUE,0.9955
same,AUC,SBC5_LUNG,1.053
same,AUC,SCABER_URINARY_TRACT,1.101
same,AUC,SCC25_UPPER_AERODIGESTIVE_TRACT,0.9004
same,AUC,SF126_CENTRAL_NERVOUS_SYSTEM,0.9271
same,AUC,SF295_CENTRAL_NERVOUS_SYSTEM,1.235
same,AUC,SF539_CENTRAL_NERVOUS_SYSTEM,0.9498
same,AUC,SH4_SKIN,0.9224
same,AUC,SH10TC_STOMACH,1.086
same,AUC,SIMA_AUTONOMIC_GANGLIA,1.191
same,AUC,SJSA1_BONE,1.13
same,AUC,SKES1_BONE,0.9809
same,AUC,SKHEP1_LIVER,0.9481
same,AUC,SKLU1_LUNG,1.195
same,AUC,SKMEL2_SKIN,0.945
same,AUC,SKMEL3_SKIN,1.224
same,AUC,SKMEL5_SKIN,1.137
same,AUC,SKMEL24_SKIN,1.275
same,AUC,SKMEL30_SKIN,1.1049
same,AUC,SKMES1_LUNG,1.035
same,AUC,SKNAS_AUTONOMIC_GANGLIA,1.162
same,AUC,SKNBE2_AUTONOMIC_GANGLIA,0.9661
same,AUC,SKOV3_OVARY,1.113
same,AUC,SKUT1_SOFT_TISSUE,1.098
same,AUC,SNB75_CENTRAL_NERVOUS_SYSTEM,1.029
same,AUC,SNGM_ENDOMETRIUM,1.214
same,AUC,SNU46_UPPER_AERODIGESTIVE_TRACT,1.023
same,AUC,SNU61_LARGE_INTESTINE,1.357
same,AUC,SNU81_LARGE_INTESTINE,1.469
same,AUC,SNU213_PANCREAS,0.9253
same,AUC,SNU245_BILIARY_TRACT,1.172
same,AUC,SNU308_BILIARY_TRACT,1.2193
same,AUC,SNU398_LIVER,1.038
same,AUC,SNU407_LARGE_INTESTINE,0.8767
same,AUC,SNU410_PANCREAS,1.127
same,AUC,SNU423_LIVER,1.115
same,AUC,SNU449_LIVER,0.9807
same,AUC,SNU466_CENTRAL_NERVOUS_SYSTEM,0.8672
same,AUC,SNU601_STOMACH,1.056
same,AUC,SNU668_STOMACH,0.9502
same,AUC,SNU685_ENDOMETRIUM,0.9823
same,AUC,SNU719_STOMACH,1.037
same,AUC,SNU738_CENTRAL_NERVOUS_SYSTEM,1.115
same,AUC,SNU761_LIVER,1.164
same,AUC,SNU840_OVARY,1.115
same,AUC,SNU869_BILIARY_TRACT,1.118
same,AUC,SNU886_LIVER,1.231
same,AUC,SNU1041_UPPER_AERODIGESTIVE_TRACT,1.134
same,AUC,SNU1066_UPPER_AERODIGESTIVE_TRACT,1.18
same,AUC,SNU1076_UPPER_AERODIGESTIVE_TRACT,0.9825
same,AUC,SNU1077_ENDOMETRIUM,1.083
same,AUC,SNU1079_BILIARY_TRACT,1.166
same,AUC,SNU1105_CENTRAL_NERVOUS_SYSTEM,1.105
same,AUC,SNU1196_BILIARY_TRACT,1.09
same,AUC,SNU1214_UPPER_AERODIGESTIVE_TRACT,0.9564
same,AUC,SNUC2A_LARGE_INTESTINE,1.042
same,AUC,SNUC4_LARGE_INTESTINE,1.117
same,AUC,SNUC5_LARGE_INTESTINE,1.097
same,AUC,SQ1_LUNG,1.099
same,AUC,SUIT2_PANCREAS,1.021
same,AUC,SW480_LARGE_INTESTINE,1.084
same,AUC,SW579_THYROID,1.209
same,AUC,SW620_LARGE_INTESTINE,1.165
same,AUC,SW780_URINARY_TRACT,1.236
same,AUC,SW837_LARGE_INTESTINE,1.0717
same,AUC,SW900_LUNG,1.235
same,AUC,SW948_LARGE_INTESTINE,1.132
same,AUC,SW1088_CENTRAL_NERVOUS_SYSTEM,1.121
same,AUC,SW1271_LUNG,1.015
same,AUC,SW1353_BONE,0.6793
same,AUC,SW1573_LUNG,1.097
same,AUC,SW1710_URINARY_TRACT,1.102
same,AUC,SW1990_PANCREAS,1.083
same,AUC,T3M10_LUNG,1.12
same,AUC,T24_URINARY_TRACT,1.071
same,AUC,T47D_BREAST,1.066
same,AUC,T98G_CENTRAL_NERVOUS_SYSTEM,0.9969
same,AUC,TCCPAN2_PANCREAS,1.118
same,AUC,TCCSUP_URINARY_TRACT,1.104
same,AUC,TE1_OESOPHAGUS,1.328
same,AUC,TE4_OESOPHAGUS,1.033
same,AUC,TE5_OESOPHAGUS,0.9565
same,AUC,TE6_OESOPHAGUS,1.06
same,AUC,TE8_OESOPHAGUS,0.9218
same,AUC,TE9_OESOPHAGUS,1.298
same,AUC,TE10_OESOPHAGUS,0.9856
same,AUC,TE11_OESOPHAGUS,1.076
same,AUC,TEN_ENDOMETRIUM,0.9874
same,AUC,TM31_CENTRAL_NERVOUS_SYSTEM,1.105
same,AUC,TM87_SOFT_TISSUE,1.039
same,AUC,TOV21G_OVARY,0.7718
same,AUC,TOV112D_OVARY,0.9778
same,AUC,TT2609C02_THYROID,1.023
same,AUC,TT_OESOPHAGUS,1.189
same,AUC,TT_THYROID,0.9532
same,AUC,TUHR4TKB_KIDNEY,1.093
same,AUC,U2OS_BONE,1.264
same,AUC,U118MG_CENTRAL_NERVOUS_SYSTEM,1.3332
same,AUC,U251MG_CENTRAL_NERVOUS_SYSTEM,1.04
same,AUC,UACC62_SKIN,0.9925
same,AUC,UACC257_SKIN,0.9688
same,AUC,UBLC1_URINARY_TRACT,1.0896
same,AUC,UMUC1_URINARY_TRACT,1.045
same,AUC,UO31_KIDNEY,1.143
same,AUC,VMCUB1_URINARY_TRACT,0.9508
same,AUC,VMRCRCW_KIDNEY,1.069
same,AUC,VMRCRCZ_KIDNEY,1.083
same,AUC,WM88_SKIN,1.093
same,AUC,WM793_SKIN,1.133
same,AUC,WM983B_SKIN,1.143
same,AUC,WM1799_SKIN,0.7611
same,AUC,WM2664_SKIN,1.168
same,AUC,YAPC_PANCREAS,1.439
same,AUC,YD8_UPPER_AERODIGESTIVE_TRACT,1.127
same,AUC,YD10B_UPPER_AERODIGESTIVE_TRACT,0.9769
same,AUC,YD15_SALIVARY_GLAND,0.9723
same,AUC,YD38_UPPER_AERODIGESTIVE_TRACT,1.117
same,AUC,YH13_CENTRAL_NERVOUS_SYSTEM,1.068
same,AUC,YKG1_CENTRAL_NERVOUS_SYSTEM,1.107
same,AUC,ZR751_BREAST,0.9538
